Experimental data as given in US20140045809A1, “CORROLES FOR NEUROPROTECTION AND NEURORESCUE” (priority 2008, published 2014).
“Also recorded” adds a separate entry of the source.

Legend:
[1] = system: RIN-m cells; experiment: Cellular uptake of fluorescent corrole, fluorescence microscopy, RIN-m cells; format: cell-based; conditions: 20 μM, half an hour at 37° C.
Description: (§1) For testing cellular membrane penetration, as well as uptake and accumulation of corroles in the cells, we took advantage of the fluorescence property of an appropriate corrole. For this purpose we used a fluorescent corrole complex (1C-Ga) that is structurally identical to the catalytic compounds utilized in the cytoprotection/cytorescue experiments, except that the chelated metal is gallium(III) rather than iron(III) in 1C-Fe or manganese(III) in 1C-Mn. The results are shown in FIGS. 21A-D for RIN-m (insulinoma) cell line and FIGS. 22A-D for SH-SY5Y (neuroblastoma) cell line.
(§2) To visualize intracellular corrole we used fluorescence microscopy. Neuroblastoma SH-SY5Y cells and insulinoma RIN-m cells were plated on coverslips. At 24 h after plating, corrole 1C-Ga was added directly to the cell media and incubated for half an hour at 37° C. The cells were then aspirated from the media and washed with phosphate buffer to eliminate background signal due to extra cellular corrole. Fixation with formaldehyde was performed. Coverslips with mounting medium (with DAPI) were directly placed on slides and viewed by fluorescence microscopy; the results are shown in FIGS. 21, 22.

[2] = In-vivo fluorescence imaging of corrole in nude mice (IVIS 200); conditions: 19 mg/kg i.p., 30 min after injection
Protocol: For obtaining information about in-vivo localization and distribution of the various corroles that have sulfonic acid head groups, in-vivo imaging of corroles in whole animals was performed. Of particular interest was to examine whether the leading corrole compounds unlike most porphyrins are able to cross the blood brain barrier (BBB).
The in vivo imaging experiments were performed as follows. Nude mice received i.p. injections of the fluorescent gallium(III) corrole 1C-Ga and were examined by IVIS 200 imaging system [Xenogen].

[3] = system: SH-SY5Y cells; experiment: Cellular uptake of fluorescent corrole, fluorescence microscopy, SH-SY5Y cells; format: cell-based, human; conditions: 20 μM, half an hour at 37° C.
Description: as §1, §2

- cellular uptake and accumulation [1]: accumulation inside the cells
- cellular uptake and accumulation [3]: accumulation inside the cells
Substance: 2,17-bis(sulfonato)-5,10,15-tris(pentafluorophenyl)-corrolato galium(III) [1C-Ga]
- BBB penetration / accumulation in brain area [2]: possible BBB penetration and accumulation of the corrole complex in brain area; also recorded: indicative of the crossing of the blood brain barrier (BBB)
